Measurements published in patent US9180115B2, “Cyclohexylamines” (Asana Biosciences, LLC, priority 2011, dated 2015).

Tested on: sodium channel response in hTRPV1-N1E115 cells
Assay: FLIPR membrane potential assay of sodium channel response in hTRPV1-N1E115 cells with or without heat (47° C.) activation
Type: cell-based
Conditions: for hTRPV1-N1E Nav 0.1 mM (% inhibition) 25° C. / hTRPV1-N1E Nav 1 mM (% inhibition) 25° C.: 25° C. (no heat activation); for hTRPV1-N1E Nav 0.1 mM (% inhibition) 47° C. / hTRPV1-N1E Nav 1 mM (% inhibition) 47° C.: 47° C. (heat activated); for IC50: read-out: hTRPV1-N1E IC50 (μM) 47° C.
Description: In one embodiment, a modified FLIPR® (Fluorometric Imaging Plate Reader) based assay system was developed which is capable of discriminating between non-specific versus hTRPV1-mediated entry of test compounds. Advantageously, the assay system utilizes heat activated opening of hTRPV1 channels followed by an assessment of internal sodium channel block. The assay allows a permanently charged compound to selectively enter through opened hTRPV1 channels and that compound's potency in inhibiting sodium channels from the cytoplasm side of the same cell can be assessed and quantified.
The test compounds are diluted in the Assay Buffer and added to each well of a specific 384-well ‘compound plate’, which serves as a source plate for compound addition using the FLIPR® platform. The concentration of compounds in the compound-plate was adjusted to achieve the desired final concentration when added to the cells in the ‘cell-plate’. After completion of the dye incubation period, the dye loaded cell-plates and the compound source plates are inserted into the FLIPR® Tetra device with a 384 FLIPR® tip box (Molecular Devices, Inc.) according to manufacturer's instructions. The compounds are robotically added to the dye loaded cell-plates using software integral to the FLIPR® Tetra instrument.
Immediately following compound addition, hTRPV1 is activated, in one of the duplicate cell plates, by heating. Specifically, entire multi-well plate containing the compound-cells mixture is incubated at 47° C. for 10 minutes, after which they are returned to room temperature (about 25° C.) for a further 30 minutes. Heat activation of hTRPV1 was omitted from the replicate cell plate which was simply maintained at room temperature for the entire 40 minutes.
A membrane potential response is elicited in the dye- and compound-loaded cells by the addition of veratridine which is a known sodium channel ‘agonist’. As illustrated in an example herein, an agonist plate containing veratridine (Sigma) is prepared in advance and is inserted into suitable devices such as, e.g., the FLIPR® TETRA device for a “2nd addition” as instructed by the manufacturer. The concentration of veratridine in the ‘agonist plate’ was adjusted to achieve a final concentration of 100 μM when added to the cells in the cell-plate. Final concentrations of veratridine greater or lesser than 100 μM may also be used but the signal measured by the FLIPR® TETRA device or another suitable device may vary accordingly.
The exposure of the cells in the cell-plate to veratridine induces sodium channels in the cells to open and the resulting ion flux produces a membrane potential depolarization that is detected as a fluorescence signal by the FLIPR® Tetra Device. The activity of test compounds is determined by their ability to attenuate the veratridine-induced fluorescence signal, the most promising compounds are those that show an enhanced activity in the heat-activated cell plate over the non-heat-activated cell plate. This differential activity reflects enhanced compound uptake via the heat activated and open hTRPV1 channels and rests on the fact that sodium channel block requires test compounds to act from the cytoplasmic side of the cell membrane.
In vitro assays were developed for assessing the inhibition of sodium channel response with compounds following stimulation by heat (47° C.) in cells expressing hTRPV1.
(v) Membrane potential Assay to Assess Sodium Channel Function in hTRPV1-Expressing Cells • Cells were plated at 5000 per 50 μL [DMEM+10% FBS+300 μg/mL H\hygromycin] per well, in a 384 clear bottom poly-D-lysine coated plate and incubated at 37° C. and 5% CO2 for 48 hours. On the day of the assay, media were discarded gently and 30 μL of the dye [FMP blue dye was prepared in assay buffer] per well was added and dye-loading was allowed to proceed for 20 min at room temperature. […]

| Compound | hTRPV1-N1E Nav (% inhibition) 25° C., 0.5 mM (0.5 mM, 25° C.) | hTRPV1-N1E Nav (% inhibition) 47° C., 0.5 mM (0.5 mM, 47° C.) | hTRPV1-N1E Nav (% inhibition) 25° C., 5 mM (5 mM, 25° C.) | hTRPV1-N1E Nav (% inhibition) 47° C., 5 mM (5 mM, 47° C.) | hTRPV1-N1E Nav 0.1 mM (% inhibition) 25° C. | hTRPV1-N1E Nav 0.1 mM (% inhibition) 47° C. | IC50 (47° C.) | hTRPV1-N1E Nav 1 mM (% inhibition) 25° C. | hTRPV1-N1E Nav 1 mM (% inhibition) 47° C. |
| --- | --- | --- | --- | --- | --- | --- | --- | --- | --- |
| CC[N+](CC)(CC(C)OC(=O)c1ccccc1)C1CCCCC1.[Cl-] (stereo not shown) [Example 3, N-[2-(benzoyloxy)propyl]-N,N-diethylcyclohexanaminium chloride] | 14 (N = 2, % | 19 (N = 2, % | 52 (N = 2, % | 67 (N = 2, % | – | – | – | – | – |
| CC(C[N+](C)(C)C1CCCCC1)OC(=O)c1ccc(C(C)C)cc1.[I-] (stereo not shown) [Example 4, N-[2-((4-isopropylbenzoyl)oxy)propyl]-N,N-dimethylcyclohexanaminium iodide] | – | – | – | – | 24 (N = 4) % | 86 (N = 4) % | 10 to 100 µM | – | – |
| COc1cccc(OC)c1C(=O)OC(C)C[N+](C)(C)C1CCCCC1.[I-] (stereo not shown) [Example 7, N-[2-((2,6-Dimethoxybenzoyl)oxy)propyl]-N,N-dimethyl-cyclohexanaminium iodide] | – | – | – | – | 1 (N = 4) % | 28 (N = 4) % | – | 0 (N = 4) % | 70 (N = 4) % |
| CC(C[N+](C)(C)C1CCCCC1)OC(=O)c1ccccc1F.[I-] (stereo not shown) [Example 8, N-[2-((2-Fluorobenzoyl)oxy)propyl]-N,N-dimethyl-cyclohexanaminium iodide] | – | – | – | – | 14 (N = 4) % | 38 (N = 4) % | – | 22 (N = 4) % | 53 (N = 4) % |
| CC(C[N+](C)(C)C1CCCCC1)OC(=O)c1ccccc1Cl.[I-] (stereo not shown) [Example 9, N-[2-((2-Chlorobenzoyl)oxy)propyl]-N,N-dimethyl-cyclohexanaminium iodide] | – | – | – | – | 16 (N = 4) % | 67 (N = 4) % | – | – | – |
| CC(C[N+](C)(C)C1CCCCC1)OC(=O)c1ccc(Cl)cc1Cl.[I-] (stereo not shown) [Example 10, N-[2-((2,4-Dichlorobenzoyl)oxy)propyl]-N,N-dimethyl-cyclohexanaminium iodide] | – | – | – | – | 10 (N = 4) % | 59 (N = 4) % | 100 to 1000 µM | 61 (N = 4) % | 95 (N = 4) % |
| Cc1ccccc1C(=O)OC(C)C[N+](C)(C)C1CCCCC1.[I-] (stereo not shown) [Example 11, N,N-Dimethyl-N-[2-((2-methylbenzoyl)oxy)propyl] cyclohexanaminium iodide] | – | – | – | – | 16 (N = 4) % | 40 (N = 4) % | 100 to 1000 µM | – | – |
| CC(C[N+](C)(C)C1CCCCC1)OC(=O)c1ccc(Cl)cc1.[I-] (stereo not shown) [Example 13, N-[2-((4-Chlorobenzoyl)oxy)propyl]-N,N-dimethyl-cyclohexanaminium iodide] | – | – | – | – | 0 (N = 4) % | 44 (N = 4) % | 10 to 100 µM | 51 (N = 4) % | 89 (N = 4) % |
| CC(C[N+](C)(C)C1CCCCC1)OC(=O)c1cccc(F)c1.[I-] (stereo not shown) [Example 14, N-[2-((3-Fluorobenzoyl)oxy)propyl]-N,N-dimethyl-cyclohexanaminium iodide] | – | – | – | – | 0 (N = 4) % | 31 (N = 4) % | – | 10 (N = 4) % | 66 (N = 4) % |
| CC(C[N+](C)(C)C1CCCCC1)OC(=O)c1ccc(F)cc1C(F)(F)F.[I-] (stereo not shown) [Example 15, N-[2-((4-Fluoro-2-(trifluoromethyl)benzoyl)oxy)propyl]-N,N-dimethyl-cyclohexanaminium iodide] | – | – | – | – | 6 (N = 4) % | 45 (N = 4) % | 100 to 1000 µM | 59 (N = 4) % | 92 (N = 4) % |
| CC(C[N+](C)(C)C1CCCCC1)OC(=O)c1cccc(C(F)(F)F)c1.[I-] (stereo not shown) [Example 16, N,N-Dimethyl-N-[2-((3-(trifluoromethyl)benzoyl)oxy)propyl] cyclohexanaminium iodide] | – | – | – | – | 31 (N = 4) % | 60 (N = 4) % | 100 to 1000 µM | 50 (N = 4) % | 83 (N = 4) % |
| CC(C[N+](C)(C)C1CCCCC1)OC(=O)c1ccccc1C(F)(F)F.[I-] (stereo not shown) [Example 17, N-[2-((2-(Trifluoromethyl)benzoyl)oxy)propyl]-N,N-dimethylcyclo-hexanaminium iodide] | – | – | – | – | 4 (N = 4) % | 54 (N = 4) % | 100 to 1000 µM | 72 (N = 4) % | 96 (N = 4) % |
| CC(C[N+](C)(C)C1CCCCC1)OC(=O)c1ccccc1[N+](=O)[O-].[I-] (stereo not shown) [Example 18, N,N-Dimethyl-N-[2-((2-nitrobenzoyl)oxy)propyl] cyclohexanaminium iodide] | – | – | – | – | 3 (N = 4) % | 41 (N = 4) % | – | 28 (N = 4) % | 66 (N = 4) % |
| CC(C[N+](C)(C)C1CCCCC1)OC(=O)c1cc(Cl)cc(Cl)c1.[I-] (stereo not shown) [Example 19, N-[2-((3,5-Dichlorobenzoyl)oxy)propyl]-N,N-dimethyl-cyclohexanaminium iodide] | – | – | – | – | 25 (N = 4) % | – | 10 to 100 µM | 12 (N = 4) % | 52 (N = 4) % |
| CCc1ccc(C(=O)OC(C)C[N+](C)(C)C2CCCCC2)cc1.[I-] (stereo not shown) [Example 20, N-[2-((4-Ethylbenzoyl)oxy)propyl]-N,N-dimethyl-cyclohexanaminium iodide] | – | – | – | – | 14 (N = 4) % | 77 (N = 4) % | 10 to 100 µM | 46 (N = 4) % | 95 (N = 4) % |
| CC(C[N+](C)(C)C1CCCCC1)OC(=O)c1ccc(C(F)(F)F)cc1.[I-] (stereo not shown) [Example 21, N,N-Dimethyl-N-[2-((4-(trifluoromethyl)benzoyl)oxy)propyl] cyclohexanaminium iodide] | – | – | – | – | 11 (N = 4) % | 57 (N = 4) % | 100 to 1000 µM | 35 (N = 4) % | 96 (N = 4) % |
| Cc1cc(C)c(C(=O)O[C@@H](C)C[N+](C)(C)C2CCCCC2)c(C)c1.[I-] [Example 22, (S)-N,N-Dimethyl-N-[2-((2,4,6-trimethylbenzoyl)oxy)propyl] cyclohexanaminium iodide] | – | – | – | – | 33 (N = 4) % | – | 10 to 100 µM | 91 (N = 4) % | – |
| Cc1cccc(C)c1C(=O)O[C@@H](C)C[N+](C)(C)C1CCCCC1.[I-] [Example 23, (S)-N-[2-((2,6-Dimethylbenzoyl)oxy)propyl]-N,N-dimethyl-cyclohexanaminium iodide] | – | – | – | – | 38 (N = 4) % | – | 10 to 100 µM | 76 (N = 4) % | – |
| Cc1cccc(C)c1C(=O)O[C@H](C)C[N+](C)(C)C1CCCCC1.[I-] [Example 24, (R)-N-[2-((2,6-Dimethylbenzoyl)oxy)propyl]-N,N-dimethyl-cyclohexanaminium iodide] | – | – | – | – | 22 (N = 4) % | – | 10 to 100 µM | 81 (N = 4) % | – |
